Source: US20050107289A1, “Anti-microbial peptides and compositions” (priority 2001, published 2005)
Counter-ions that a name gives are not always drawn. Like-named read-outs stand apart in the source and are kept apart here. Non-standard residues stand in square brackets, D forms with d. Residues, ends and D or L forms follow the SMILES beside them.

What was measured:
[1] = tested on: S. aureus (MRSA) ATCC 33591; format: cell-based, Staphylococcus aureus; settings: for MRSA (in vitro activity): Table 9; for S. aureus (MRSA) MIC: ATCC 33591
Procedure: (§1) The antimicrobial activity of the peptides was determined using a broth dilution assay essentially as descried in the guidelines of the National Committee for […] (NCCLS) [National Committee for Clinical Laboratory Standards. Methods for dilution antimicrobial susceptibility tests for bacteria that grow aerobically. Fourth edition. Approved Standard (1997). Document M7-A4. […] The microdilution method has the advantages of requiring less amount of peptide for each assay and the possibility of multiple simultaneous inoculations and was used in most studies. Several of the strains of bacteria tested are further described in Table 3.
(§2) Preparation of peptide solutions. Stock peptide solutions were prepared in 5% DMSO in aq. sucrose (9%). Determination of peptide concentrations was done by quantitative HPLC analysis using known concentrations of internal standards and/or by measuring UV absorption of tryptophane-containing peptide solutions in H2O (λ=280 εTrp: 5690). Serial 2-fold dilutions were made in the above DMSO/aq. sucrose (9%) mixture with concentrations ranging approximately 400-2 μg/ml and aliquots were dispensed in test tubes (100 μl) for the macrodilution test or in microtiter plates (20 μl) for the microdilution assays.
(§3) Inoculum preparation. Overnight cultures of different microorganisms grown in suitable media were diluted 4000 times to an approximate inoculum size of 2.5×10^5 cfu/ml.
(§4) Macrodilution method. Macrodilution methods were performed using procedures similar to those described in the National Committee for Clinical Laboratory Standards. Methods for dilution antimicrobial susceptibility tests for bacteria that grow aerobically. Fourth edition. Approved Standard (1997). Document M7-A4. (NCCLS,Villanova, Pa., 1997). Two ml aliquots of the above inoculum were dispensed to test tubes containing different peptide solutions.
(§5) Microdilution method. Microdilution methods were performed using procedures similar to those described in the National Committee for Clinical Laboratory Standards. Methods for dilution antimicrobial susceptibility tests for bacteria that grow aerobically. Fourth edition. Approved Standard (1997). Document M7-A4.

murine red blood cells = test: Red blood cell hemolysis; format: cell-based, mouse
Procedure: Selectivity of cyclic peptides for bacterial over mammalian cells was evaluated by measuring red blood cell hemolytic activities as described in Tosteson, M. T. Holmes, S. J., Razin, M. and Tosteson, D. C. Melittin Lysis of Red Cells, J. Membrane Biol. 87, 35-44(1985). Heparinized murine blood was centrifuged at 1000×g for 10 minutes. The supernatant and the buffy coat were removed. Erythrocytes were washed three times with 0.9% saline solution and then resuspended to a concentration of 5% in saline containing 10% FBS (v/v). Red blood cells were then treated with serial dilutions of test peptides in a 96 well plate at 37° C. for 30 minutes. Control samples included a saline solution arid 1% Triton X-100 as 0 and 100% hemolysis, respectively. In some cases, mellitin was used as a further control. Mellitin is a linear peptide that is hemolytic against mammalian red blood cells in vitro at a concentration of about 10 μg/ml. Plates were centrifuged at 1000 g for 10 minutes. Aliquots of the supernatant were diluted 2 times with saline solution and the absorbance was measured at 560 nm.

[2] = tested on: vancomycin-resistant Enterococus faecalis (VRE)(ATCC 51575); format: cell-based, Enterococcus faecalis; design: key to VRE (in vitro activity): peptide concentration in μg/ml (broth dilution assay); settings: Table 9
Procedure: as §1, §2, §3, §4, §5

[3] = media a: anti-microbial media-3 (AM-3)
[4] = media b: cation adjusted Meuller Hinton broth (MHBII)
[5] = media c: Brain Heart Infusion (BHI)

Row | SMILES | RBC Hemolysis (HD50) (murine red blood cells) | MRSA (in vitro activity) [1, 4] | VRE (in vitro activity) [2, 5] | other results
1 | CC(C)C[C@H]1NC(=O)[C@H](Cc2c[nH]c3ccccc23)NC(=O)[C@@H](Cc2c[nH]c3ccccc23)NC(=O)[C@H](CCCCN)NC(=O)[C@@H](Cc2c[nH]cn2)NC(=O)[C@H](Cc2c[nH]c3ccccc23)NC(=O)[C@@H](CC(C)C)NC(=O)[C@H](Cc2c[nH]c3ccccc23)NC1=O [SEQ ID NO:43, [KWWLWLWH]] (cyclo(K[dW]W[dL]W[dL]W[dH])) | >23 |  |  | MRSA (in vitro activity) [1, 3]: 13; VRE (in vitro activity) ([2]; media a: AM-3): 17
2 | CC(C)C[C@H]1NC(=O)[C@H](Cc2ccccc2)NC(=O)[C@@H](CCCCN)NC(=O)[C@H](CO)NC(=O)[C@@H](CO)NC(=O)[C@H](CCCCN)NC(=O)[C@@H](CC(C)C)NC(=O)[C@H](Cc2ccccc2)NC1=O [SEQ ID NO:79, [KSSKFLFL]] (cyclo(K[dS]S[dK]F[dL]F[dL])) | >200 | 43 | 43 | 
3 | C[C@H]1NC(=O)[C@H](CCC(N)=O)NC(=O)[C@@H](C)NC(=O)[C@H](CCCCN)NC(=O)[C@@H](C)NC(=O)[C@H](Cc2c[nH]c3ccccc23)NC(=O)[C@@H](C)NC(=O)[C@H](CCCCN)NC1=O [SEQ ID NO:95, [KAQAKAWA]] (cyclo(K[dA]Q[dA]K[dA]W[dA])) | >200 | >200 | >200 | 
4 | CC(C)C[C@H]1NC(=O)[C@H](CCCCN)NC(=O)[C@@H](CO)NC(=O)[C@H](CCCCN)NC(=O)[C@@H](CC(C)C)NC(=O)[C@H](Cc2ccccc2)NC(=O)[C@@H](CC(C)C)NC(=O)[C@H](Cc2ccccc2)NC1=O [SEQ ID NO:55, [KSKLFLFL]] (cyclo(F[dL]F[dL]K[dS]K[dL])) |  |  |  | MRSA (in vitro activity) ([1]; media b: cation adjusted Meuller Hinton broth (MHBII), listed as [KSKLFLFL] (55)): 200; VRE (in vitro activity) ([2]; media b: MHBII): 50
5 | CC(C)C[C@H]1NC(=O)[C@H](CCCCN)NC(=O)[C@@H](CC(C)C)NC(=O)[C@H](Cc2c[nH]c3ccccc23)NC(=O)[C@@H](CC(C)C)NC(=O)[C@H](Cc2c[nH]c3ccccc23)NC(=O)[C@@H](CC(C)C)NC(=O)[C@H](Cc2c[nH]c3ccccc23)NC1=O [SEQ ID NO:41, [KLWLWLWL]] (cyclo(K[dL]W[dL]W[dL]W[dL])) | 30 | 12 | 25 | 
6 | CC(C)C[C@@H]1NC(=O)[C@@H](Cc2c[nH]c3ccccc23)NC(=O)[C@H](CCCCN)NC(=O)[C@@H](Cc2c[nH]cn2)NC(=O)[C@H](CCCCN)NC(=O)[C@@H](Cc2c[nH]cn2)NC(=O)[C@H](CCCCN)NC(=O)[C@@H](Cc2c[nH]c3ccccc23)NC1=O [SEQ ID NO:85, [KHKHKWLW]] (cyclo(K[dH]K[dH]K[dW]L[dW])) | 150 | 6 | 6 | 
7 | CC(C)C[C@H]1NC(=O)[C@H](Cc2ccccc2)NC(=O)[C@@H](CCCCN)NC(=O)[C@H](CCCCN)NC(=O)[C@@H](CO)NC(=O)[C@H](CCCCN)NC(=O)[C@@H](CC(C)C)NC(=O)[C@H](Cc2ccccc2)NC1=O [SEQ ID NO:76, [KSKKFLFL]] (cyclo(K[dS]K[dK]F[dL]F[dL])) | 100 | 5 | 10 | 
8 | CC(C)C[C@H]1NC(=O)[C@H](Cc2c[nH]c3ccccc23)NC(=O)[C@@H](CCCNC(=N)N)NC(=O)[C@H](CCC(N)=O)NC(=O)[C@@H](CCCCN)NC(=O)[C@H](Cc2c[nH]c3ccccc23)NC(=O)[C@@H](CC(C)C)NC(=O)[C@H](Cc2c[nH]c3ccccc23)NC1=O [[KQRWLWLW-HCl] (8), cyclo-(D-Lys-Gln-D-Arg-Trp-D-Leu-Trp-D-Leu-Trp)] (cyclo([dK]Q[dR]W[dL]W[dL]W)) | 70 | 8 | 8 | 
9 | C[C@H]1NC(=O)[C@H](CCCCN)NC(=O)[C@@H](Cc2ccccc2)NC(=O)[C@H](CCC(N)=O)NC(=O)[C@@H](C)NC(=O)[C@H](CCCCN)NC(=O)[C@@H](Cc2ccccc2)NC(=O)[C@H](Cc2c[nH]c3ccccc23)NC1=O [SEQ ID NO:97, [KAQFKAWF]] (cyclo(K[dA]Q[dF]K[dA]W[dF])) | >200 | 100 | 100 | 
10 | CC(C)C[C@@H]1NC(=O)[C@@H](Cc2c[nH]c3ccccc23)NC(=O)[C@H](CCCCN)NC(=O)[C@@H](CO)NC(=O)[C@H](CCCCN)NC(=O)[C@@H](Cc2c[nH]c3ccccc23)NC1=O [SEQ ID NO:126, [KSKWLW]] (cyclo(K[dS]K[dW]L[dW])) | >65 |  |  | MRSA (in vitro activity) [1, 3]: 19; VRE (in vitro activity) ([2]; media a: AM-3): 38
11 | CC(C)C[C@@H]1NC(=O)[C@@H](Cc2c[nH]c3ccccc23)NC(=O)[C@H](Cc2ccccc2)NC(=O)[C@@H](CCCNC(=N)N)NC(=O)[C@H](CCC(N)=O)NC(=O)[C@@H](CCCNC(=N)N)NC(=O)[C@H](Cc2c[nH]c3ccccc23)NC(=O)[C@@H](Cc2c[nH]c3ccccc23)NC1=O [SEQ ID NO:39, QRFWLWWR] (cyclo(Q[dR]F[dW]L[dW]W[dR])) |  |  |  | S. aureus (MRSA) MIC [1]: 2.5 to 3.8 µg/mL
12 | CC(C)C[C@@H](NC(=O)[C@H](Cc1c[nH]c2ccccc12)NC(=O)[C@@H](CC(C)C)NC(=O)[C@H](Cc1c[nH]c2ccccc12)NC(=O)[C@@H](CCCCN)NC(=O)[C@H](CCCCN)NC(=O)[C@H](N)CCCCN)C(=O)N[C@@H](Cc1c[nH]c2ccccc12)C(=O)O [SEQ ID NO:24, KKKWLWLW] (H-[dK]K[dK]W[dL]W[dL]W-OH; N-terminus and C-terminus assumed) |  |  |  | S. aureus (MRSA) MIC [1]: 50 µg/mL
13 | CC(C)C[C@@H](NC(=O)[C@H](Cc1c[nH]c2ccccc12)NC(=O)[C@@H](CC(C)C)NC(=O)[C@H](Cc1c[nH]c2ccccc12)NC(=O)[C@@H](CCCCN)NC(=O)[C@H](CCCCN)NC(=O)[C@@H](CCCCN)NC(=O)[C@@H](N)Cc1c[nH]c2ccccc12)C(=O)N[C@@H](Cc1c[nH]c2ccccc12)C(=O)O [SEQ ID NO:23, WKKKWLWLW] (H-W[dK]K[dK]W[dL]W[dL]W-OH; N-terminus and C-terminus assumed) |  |  |  | S. aureus (MRSA) MIC [1]: 60 µg/mL
14 | CC(C)C[C@@H]1NC(=O)[C@@H](Cc2c[nH]c3ccccc23)NC(=O)[C@H](C(C)C)NC(=O)[C@@H](CCCNC(=N)N)NC(=O)[C@H](CCC(N)=O)NC(=O)[C@@H](CCCNC(=N)N)NC(=O)[C@H](Cc2c[nH]c3ccccc23)NC(=O)[C@@H](Cc2c[nH]c3ccccc23)NC1=O [SEQ ID NO:38, QRVWLWWR] (cyclo(Q[dR]V[dW]L[dW]W[dR])) |  |  |  | S. aureus (MRSA) MIC [1]: 2.5 to 3.8 µg/mL
15 | CC[C@H](C)[C@@H]1NC(=O)[C@@H](CC(C)C)NC(=O)[C@H](CCCCN)NC(=O)[C@@H](CO)NC(=O)[C@H](CCCCN)NC(=O)[C@@H](CC(C)C)NC(=O)[C@H]([C@@H](C)CC)NC(=O)[C@@H](CC(C)C)NC1=O [SEQ ID NO:58, [KSKLILIL]] (cyclo(I[dL]I[dL]K[dS]K[dL])) |  |  |  | MRSA (in vitro activity) ([1]; media b: cation adjusted Meuller Hinton broth (MHBII), listed as [KSKLILIL] (58)): >200; VRE (in vitro activity) ([2]; media b: MHBII): 50
16 | CC(C)C[C@@H]1NC(=O)[C@@H](Cc2c[nH]c3ccccc23)NC(=O)[C@H](Cc2c[nH]c3ccccc23)NC(=O)[C@@H](CCCNC(=N)N)NC(=O)[C@H](CCC(N)=O)NC(=O)[C@@H](CCCNC(=N)N)NC(=O)[C@H](Cc2c[nH]c3ccccc23)NC(=O)[C@@H](Cc2c[nH]c3ccccc23)NC1=O [SEQ ID NO:36, QRWWLWWR] (cyclo(Q[dR]W[dW]L[dW]W[dR])) |  |  |  | S. aureus (MRSA) MIC [1]: 2.5 to 3.8 µg/mL
17 | C[C@H](O)[C@H]1NC(=O)[C@H](CCCNC(=N)N)NC(=O)[C@@H](CO)NC(=O)[C@H](CCC(N)=O)NC(=O)[C@@H](Cc2c[nH]cn2)NC(=O)[C@H](CCCCN)NC1=O [SEQ ID NO:131, [KHQSRT]] (cyclo(K[dH]Q[dS]R[dT])) |  |  |  | MRSA (in vitro activity) [1, 3]: >200; VRE (in vitro activity) ([2]; media a: AM-3): >200
